Patent US7893070B2, “Method of treating parturient placental mammals in order to reduce maternal and/or uterine exhaustion” (priority 2005, dated 2011)

What was measured:
[1] = system: sows; assay: Caffeine suppository to sows after birth of first piglet; indices of piglet health and birth interval; format: in vivo, swine
Excerpt: In commercial swine production, typically 8% of the fetuses are stillborn, and 12% of the newborn piglets die prior to weaning (SIVA, 2005). Oxygen deprivation during the birth process is an important causal factor for both stillbirths and neonatal mortality. An indicator for oxygen deprivation is umbilical (blood) pH. This pH is typically 7.4, but upon oxygen deprivation CO2 accumulates in the blood and tissues resulting in a drop in pH. If this drop is severe enough, it will result in the death of the fetus. A moderate drop in pH may not be lethal but may inflict sufficient metabolic damage such that it affects the health and fitness of the newborn and thus its chances of survival. Measurements of umbilical (blood) pH confirmed that this pH drops as the length of parturition increases. Previous work by Randall (1971) has shown a good correlation between umbilical pH and livability of piglets (FIG. 1).
Infrared radiation temperature is another indicator of metabolic health of a mammal. A strong correlation between infrared temperature and survival chances for newborn pigs has been shown. This infrared temperature was obtained by collecting piglets at birth, immediately drying them, and measuring infrared temperature. In a first experiment, 7 sows received a caffeine-comprising suppository (1-2 mg/kg BW, or 400-600 mg) after the birth of the first piglet in a litter. The indices of piglet health as described here above were compared to those of a control group of 6 sows. […] (P=0.04).

[2] = system: sows; assay: 400 mg caffeine oral paste to sows after birth of first piglet; duration of parturition; format: in vivo, swine; conditions: 400 mg oral paste; controls 159 minutes
Experimental: In a second experiment, 19 sows received 400 mg of caffeine comprised in a paste for oral ingestion, in accordance with the invention, after the birth of the first piglet while 19 sows served as untreated controls.
Practically, some untreated animals delivered their litter expediently and with few problems, but there were a substantial number of mothers for whom parturition became a lengthy process.

[3] = Uptake of caffeine into blood (serum) of pregnant sows
Experimental: Blood samples were collected pre-administration and at multiple time points post administration through an ear-vein catheter such that the uptake of caffeine into the blood (serum) could be modelled. Besides the caffeine level, the levels of its main metabolites paraxanthine, theophylline, and theobromine were determined.
This pool was not modelled.

[4] = system: sows; assay: 900 mg caffeine oral paste, Velddriel research station; stillbirth and piglet mortality; format: in vivo, swine; conditions: 900 mg oral paste
Experimental: The method of treatment according to the present invention was further tested at the Provimi research station in Velddriel, the Netherlands, in three farrowing groups. In the Velddriel facility farrowings are not attended by (veterinary) personnel and parturition is thus not actively managed. Stillbirth and mortality rates are thus in line with commercial practices.
Sows were assigned to treatment based on parity. Overall, 27 sows served as controls and 29 were treated in accordance with the present invention when they were expected to farrow in the next 8 hours. Treated sows were administered 900 mg of caffeine comprised in a paste for oral ingestion, in accordance with the invention.

[5] = Transfer of caffeine from the mother to piglets (blood at birth) and colostrum; format: in vivo, swine; conditions: 900 mg oral paste to sow; same time-point
Excerpt: In order to assess whether caffeine was transferred from the mother to the piglets, blood samples were collected from several piglets at the time of birth and samples from colostrum were taken. […] The concentrations found were dependent on the time relative to dosing the treatment composition. For piglets at birth, they were roughly ¼^th the concentration in the mother at that time-point, and in milk they were roughly ⅙^th the concentration in the mother at that time-point. Values observed were in the range of 0.1 to 1.5 mg/L.

[6] = system: sows; assay: 900 mg caffeine oral paste, actively managed farm in Bieganow; format: in vivo, swine; conditions: for increase in feed consumption of sows: vs control
Experimental: The method of treatment according to the present invention was further tested at a well-managed farm in Bieganow, Poland. In this facility farrowings are attended by (veterinary) personnel and parturition is actively managed. As a result, stillbirth rates are extremely low (0.33 piglets per litter or 3% of the piglets).
At this farm, 89 sows comprising one farrowing group were available for the test. These sows were assigned to receive either a 900 mg of caffeine containing paste in accordance with the invention or no treatment, based on parity, body condition, and historical performance. The treatment composition was administered orally to selected sows when they were expected to farrow in the next 8 hours.

[7] = system: sows; conditions: intravenous injection of 0.5 mg/50 kg bodyweight, cited from earlier work

Cn1c(=O)c2c(ncn2C)n(C)c1=O [caffeine]
increase of piglet umbilical (blood) pH ([1]; suppository 1-2 mg/kg BW (400-600 mg) vs control sows, P=0.03): 0.044±0.020 units | increase of piglet infrared radiation temperature ([1]; suppository 1-2 mg/kg BW (400-600 mg) vs control sows, P=0.04): 0.60±0.29 °C | numerical increase of birth interval between subsequent piglets ([1]; suppository, P=0.11 (control 9 minutes, P<0.01)): 3.6 minutes for each hour into parturition | mean time interval between the birth of the first and 10th piglet [2]: 110 min | half-life ([3]; female, pig, in vivo): ~22 h | peak blood concentration, second compartment ([3]; pregnant sows, 940 mg of caffeine administered (half that for the 470 mg dose)): ~5 µM | time of peak blood concentration, second compartment ([3]; pregnant sows, post administration): 8 h | bio-availability ([3]; pregnant sows, assuming caffeine distributed in 60% of body mass): 44% | stillborn piglets per litter ([4]; expected to farrow in next 8 hours, control 0.89): 0.31 piglets per litter | piglets died or euthanized for being weak after parturition ([4]; control 1.15): 0.48 piglets per litter | caffeine concentration in milk relative to the concentration in the mother [5]: roughly ⅙ | caffeine concentration in piglets at birth relative to the concentration in the mother [5]: roughly ¼ | difference in stillbirths between treatment groups ([6]; 900 mg oral paste vs no treatment): no statistically significant differences | assistance rate ([6]; 900 mg oral paste, control group 26%): 18% | sows requiring medical care post-farrowing ([6]; 900 mg oral paste, control group seven sows (one died)): no sows required medical care | increase in feed consumption of sows ([6]; first day post farrowing): 14% | increase in feed consumption of sows ([6]; first five days post farrowing): 10% | piglets heavier than controls at weaning ([6]; piglets from treated sows): 9%

CC(C)NCC(O)COc1cccc2[nH]c3ccccc3c12 (centres unmarked) [carazolol]
stillbirth rate ([7]; reduced from 8.3): 7.1% | rate of deliveries lasting more than six hours ([7]; reduced from 14.5): 11.0%
